From PubChem BioAssay (NCI)
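Cells were grown in 96-well plates and exposed to each compound for 48 hours at five concentrations; endpoints were interpolated linearly between bracketing concentrations, or set to the highest concentration if not reached. GI50 marks 50% less growth. TGI: total growth inhibition.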

Columns and labels:
Assay in all cases: inhibition of tumour cell growth, NCI panel, 48 h
MOLT-4 leukemia = tested on: MOLT-4 leukemia
NCI-H226 lung = tested on: NCI-H226 lung
SW-620 colon = tested on: SW-620 colon
TK-10 renal = tested on: TK-10 renal
OVCAR-4 ovarian = tested on: OVCAR-4 ovarian
UO-31 renal = tested on: UO-31 renal
HCT-116 colon = tested on: HCT-116 colon
IGROV1 ovarian = tested on: IGROV1 ovarian
OVCAR-5 ovarian = tested on: OVCAR-5 ovarian
SK-OV-3 ovarian = tested on: SK-OV-3 ovarian

| SMILES | GI50 (MOLT-4 leukemia) | TGI (MOLT-4 leukemia) | GI50 (NCI-H226 lung) | TGI (NCI-H226 lung) | GI50 (SW-620 colon) | TGI (SW-620 colon) | GI50 (TK-10 renal) | TGI (TK-10 renal) | GI50 (OVCAR-4 ovarian) | TGI (OVCAR-4 ovarian) | GI50 (UO-31 renal) | TGI (UO-31 renal) | GI50 (HCT-116 colon) | TGI (HCT-116 colon) | GI50 (IGROV1 ovarian) | TGI (IGROV1 ovarian) | GI50 (OVCAR-5 ovarian) | TGI (OVCAR-5 ovarian) | GI50 (SK-OV-3 ovarian) | TGI (SK-OV-3 ovarian) |
| --- | --- | --- | --- | --- | --- | --- | --- | --- | --- | --- | --- | --- | --- | --- | --- | --- | --- | --- | --- | --- |
| CC1(C)N=C(N)N=C(N)N1c1ccc(OCC(=O)Nc2ccccc2)c(Cl)c1 | 1.19 µM | > 59.6 µM | > 71.6 µM | > 100 µM | 0.456 µM | > 100 µM | 32.4 µM | > 100 µM | 15.8 µM | > 100 µM | > 100 µM | > 100 µM | 0.502 µM | > 100 µM | 0.688 µM | > 100 µM | > 100 µM | > 100 µM | > 60.9 µM | > 100 µM |
| Cc1ccc2nc3c(Cl)c(C)c(=O)cc-3sc2c1 |  | > 100 µM | 60 µM | > 100 µM |  | > 100 µM | > 100 µM | > 100 µM | 61.7 µM | > 100 µM |  | > 100 µM | 39.6 µM | > 100 µM | > 100 µM | > 100 µM | 73.7 µM | > 100 µM | > 100 µM | > 100 µM |
| COc1ccc(CC(C)C(C)Cc2ccc(OC)c(OC)c2)cc1OC (configuration not stated) | > 1400 µM | > 1400 µM | 908 µM | > 1400 µM | > 1400 µM | > 1400 µM | > 1400 µM | > 1400 µM | 1140 µM | > 1400 µM | > 1400 µM | > 1400 µM | 1280 µM | > 1400 µM | 800 µM | > 1400 µM | > 1400 µM | > 1400 µM | > 1400 µM | > 1400 µM |
| Cc1ccccc1Nc1nc2c(s1)C(=O)c1ccccc1C2=O |  | > 24.3 µM |  | 32.8 µM |  | 6.65 µM |  | 38.4 µM |  | 5.13 µM |  | 14.4 µM |  | 6.66 µM |  | 26.4 µM |  | 38 µM |  | 38 µM |
| C[C@H]1[C@H](C)CC[C@]2(C(=O)NCCNCCN)CC[C@]3(C)C(=CC[C@@H]4[C@@]5(C)CCC(=O)C(C)(C)[C@@H]5CC[C@]43C)[C@H]12 | 2.2 µM | 4.73 µM | 14.8 µM | 45.5 µM | 1.84 µM | 3.47 µM | 1.84 µM | 3.75 µM | 1.93 µM | 4 µM | 1.53 µM | 2.86 µM | 1.71 µM | 3.18 µM | 1.71 µM | 3.17 µM | 2.9 µM | 11.3 µM | 6.91 µM | 33.2 µM |
| Cc1cc(Nc2nc(SCc3ccc(C(=O)Nc4ccc(F)cc4N)cc3)nn3cccc23)n[nH]1 | 0.508 µM | 13.5 µM | 2.7 µM | 20.5 µM | 0.426 µM | > 100 µM | 1.21 µM | 7.33 µM | 1.66 µM | 77.7 µM | 1.33 µM | 11 µM | 0.494 µM | 20.4 µM | 0.558 µM | 62 µM | 0.657 µM | > 100 µM | 0.339 µM | 4.61 µM |
| C=C(CN1CCc2ccccc2C1)c1ccc(C(=O)Nc2ccccc2N)cc1 | 0.72 µM | 2.03 µM | 1.49 µM | 9.2 µM | 1.87 µM | > 42.8 µM | 5.74 µM | 14.8 µM | 1.92 µM | 19.4 µM | 2.87 µM | 8.8 µM | 1.93 µM | > 23.2 µM | 1.54 µM | 17.6 µM | 2.64 µM | > 20.2 µM | 1.08 µM | 3.17 µM |
